# Data taken from BindingDB's records for doi:10.7270/Q2D798W4 (Burnham Center For Chemical Genomics, 2010).
# Target: T1, Alkaline phosphatase, tissue-nonspecific isozyme (Homo sapiens, UniProt P05186)
# T1 sequence (P05186 whole entry): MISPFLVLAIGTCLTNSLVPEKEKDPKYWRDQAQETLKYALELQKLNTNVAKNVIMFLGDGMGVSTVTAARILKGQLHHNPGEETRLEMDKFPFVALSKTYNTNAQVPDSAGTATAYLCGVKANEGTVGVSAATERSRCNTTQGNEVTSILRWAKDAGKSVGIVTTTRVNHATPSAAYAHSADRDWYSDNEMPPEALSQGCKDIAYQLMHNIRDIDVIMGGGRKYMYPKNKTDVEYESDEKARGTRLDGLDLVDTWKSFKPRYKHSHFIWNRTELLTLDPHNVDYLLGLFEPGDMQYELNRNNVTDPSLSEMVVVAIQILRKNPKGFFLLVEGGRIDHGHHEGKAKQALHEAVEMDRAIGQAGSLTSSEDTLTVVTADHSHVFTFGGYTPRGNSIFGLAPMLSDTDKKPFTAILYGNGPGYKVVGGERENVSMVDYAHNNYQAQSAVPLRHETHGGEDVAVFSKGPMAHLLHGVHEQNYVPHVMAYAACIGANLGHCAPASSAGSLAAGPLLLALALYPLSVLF
# Test: inhibition of tissue-nonspecific alkaline phosphatase – biochemical, dose response (AID 488882)
row,Structure (SMILES),IC50 [µM]
1,Cc1c(C(=O)NN=Cc2ccc(O)cc2O)[nH][nH]c1=O,7.32
2,CC(N=Nc1ccccc1[N+](=O)[O-])c1ccc([N+](=O)[O-])cc1 (stereo unspecified),> 100
3,"CCOC1=CC(=Cc2c(C)[nH]oc2=O)C=C(Br)C1=O [4-[(Z)-(3-bromo-5-ethoxy-4-oxo-1-cyclohexa-2,5-dienylidene)methyl]-3-methyl-2H-isoxazol-5-one]",38.1
4,C=c1[nH]n(Cc2ccccc2)c(=O)c1=Cc1ccc(N(C)C)cc1 [(4Z)-4-[[4-(dimethylamino)phenyl]methylidene]-5-methyl-2-(phenylmethyl)-3-pyrazolone],46.7
5,O=C(Nn1c(O)csc1=S)C(=O)Nn1c(O)csc1=S [SMR000349781],12.8
6,O=C(O)[C@H]1O[C@@H](Oc2c(-c3ccc(O)c(O)c3)oc3cc(O)cc(=O)c-3c2O)[C@H](O)[C@@H](O)[C@@H]1O [quercetin glucuronide],> 100
